Measurements: patent US20230373972A1, “PIPERAZINE DERIVATIVE, PREPARATION METHOD THEREFOR AND USE THEREOF” (Zhejiang Hisun Pharmaceutical Co., Ltd., priority 2020, published 2023)
Like-named read-outs stand apart in the source and are kept apart here.

What was measured:
[1] = molecular target: T1, Native human Factor XIa protease (Homo sapiens, UniProt P03951); assay: Inhibition of activity of Factor XIa protease (chromogenic substrate S-2366); format: biochemical; details: S-2366 1 mM, 37° C. 10 minutes, absorption at 405 nm
T1 construct: The Native human Factor XIa protease was purchased from Abcam; purchased Abcam ab62411
T1 sequence (P03951 388-625 limits assumed): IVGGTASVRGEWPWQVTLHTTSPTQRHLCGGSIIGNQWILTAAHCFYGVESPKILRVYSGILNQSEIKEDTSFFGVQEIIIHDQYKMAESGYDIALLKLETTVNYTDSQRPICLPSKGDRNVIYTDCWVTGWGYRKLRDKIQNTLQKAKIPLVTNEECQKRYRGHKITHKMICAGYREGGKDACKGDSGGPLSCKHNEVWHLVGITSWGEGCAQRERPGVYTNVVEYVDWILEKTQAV
T1 sequence (P03951 19-387 partner limits assumed): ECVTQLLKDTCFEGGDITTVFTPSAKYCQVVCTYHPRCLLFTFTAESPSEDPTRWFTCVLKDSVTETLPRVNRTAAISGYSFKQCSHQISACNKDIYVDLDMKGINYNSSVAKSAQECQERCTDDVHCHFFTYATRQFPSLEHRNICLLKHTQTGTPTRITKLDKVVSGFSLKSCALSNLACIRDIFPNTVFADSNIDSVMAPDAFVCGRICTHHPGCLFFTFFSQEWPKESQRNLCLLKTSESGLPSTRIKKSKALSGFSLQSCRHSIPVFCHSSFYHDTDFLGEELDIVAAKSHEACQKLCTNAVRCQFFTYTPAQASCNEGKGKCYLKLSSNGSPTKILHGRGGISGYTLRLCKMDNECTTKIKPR
Excerpt: The following method was used to determine an inhibition degree of the compound of the present invention on an activity of Native human Factor XIa protease in vitro. In the method, a Factor XIa chromogenic substrate was used to test the inhibition degree on the activity of the Factor XIa protease. The Native human Factor XIa protease was purchased from Abcam (article number ab62411), and S-2366 was purchased from Chromogenix (article number 82109039). An experimental process was briefly described as follows: a test compound was dissolved in DMSO to prepare a 10 mM storage solution first, then the compound was diluted with a Factor XIa reaction buffer (100 mM Tris-HCl, 200 mM NaCl, 0.02% Tween 20, pH 7.4) by a quadruple gradient, and a final concentration of the test compound in a reaction system ranged from 10,000 nM to […]. The reaction was carried out in a 384-well microplate. 2 μL of the test compounds at different concentrations diluted with the reaction buffer were added to wells first, and 2 μL of 1% DMSO (a final concentration of DMSO in the reaction system was 0.1%) was used to replace blank and control wells. Subsequently, 8 μL of enzyme working solution (a final concentration of Factor XIa was […]) was added to each well, and 8 μL of Factor XIa reaction buffer was used to replace the blank well, centrifuged for 30 seconds, and incubated on ice for 5 minutes. Finally, 10 μL of substrate working solution (a final concentration of S-2366 was 1 mM) was added to each well, and centrifuged for 30 seconds, and the reaction was started. The solution was incubated at 37° C. for 10 minutes to determine a light absorption value at 405 nm. By comparing with a light absorption value of the control group (0.1% DMSO), a percentage inhibition rate of the compound at each concentration was calculated, and nonlinear regression analysis was carried out on value-inhibition rate with the concentration of the compound by GraphPad Prism 5 software, so as to obtain an IC50 value of the compound, as shown in Table 1.

human plasma = assay: In-vitro anticoagulation on human plasma (APTT kit, coagulation time); details: concentration of the compound when the coagulation time (APTT) was prolonged twice
[2] = Pharmacokinetics in SD rat; format: in vivo; details: male, plasma; for Cmax: read-out: Blood concentration Cmax; for AUC(0-t): read-out: Curve area AUC0-t; for half-life: read-out: Half-life period T1/2(h) (converted); for bioavailability: intragastric 10 mg/kg vs injection 1 mg/kg, read-out: Bioavailability F(%)
Experimental: Taking a SD rat as a test animal, the SD rat was administrated with the compound of the present invention by intravenous injection and/or intragastric administration, and drug concentrations in plasma at different times were determined by a IC/MS/MS method to study pharmacokinetic characteristics of the compound of the present invention in the SD rat.
SD rats, male, 195 g to 235 g, 6 weeks old to 8 weeks old, purchased from Shanghai JieSiJie Laboratory Animal Co., Ltd.
Preparation of drug administrated by intravenous injection: a proper amount of compound to be tested was added to a proper amount of DMAC; (30% Soltol HS 15): Saline=10%: 10%: 80% (v/v/v), and shaken in a vortex manner, so as to prepare a final solution with a concentration of 0.5 mg/mL.
Preparation of drug administrated by intragastric administration: a proper amount of compound to be tested was added to a proper amount of DMAC: (30% Soltol HS 15): Saline=10%: 10%: 80% (v/v/v), and shaken in a vortex manner, so as to prepare a final solution with a concentration of 1 mg/mL.
SD rats were divided into an intravenous injection group of the compound to be tested (3 rats/group) and an intragastric administration group (3 rats/group) of the compound to be tested.
Intravenous injection group: the drug was administrated by dorsalis pedis vein injection (according to a dosage of 1 mg/kg and a volume of 2 mL/kg) without fasting.
Intragastric administration group: the drug was administrated by intragastric administration (according to a dosage of 10 mg/kg and a volume of 10 mL/kg) after fasting overnight, and food was taken 4 hours after administration.
Intravenous injection group: about 150 μL of blood was collected into an EDTA-K2 anticoagulant tube through a jugular vein 0.083 hour, 0.25 hour, 0.5 hour, 1 hour, 2 hours, 4 hours, 8 hours and 24 hours after administration.
Intragastric administration group; about 150 μL of blood was collected into an EDTA-K2 anticoagulant tube through a jugular vein 0.25 how, 0.5 hour, 1 hour, 2 hours, 4 hours, 8 hours and 24 hours after administration.
The blood sample was stored in wet ice first, and plasma was centrifugally separated within 15 minutes after sampling (centrifugation conditions: 2,000 g, 4° C., 5 minutes). The collected upper plasma was stored at −70° C. before analysis.
Contents of the compound to be tested in rat plasma after intravenous injection and intragastric administration were determined by LC-MS/MS.

[3] = po, intragastric administration 10 mg/kg
[4] = iv, injection administration 1 mg/kg

IC50 [1]	Cmax [2, 3]	AUC(0-t) [2, 3]	half-life [2, 3]	AUC(0-t) [2, 4]	half-life [2, 4]	bioavailability ([2]; po)	SMILES	CT2 (human plasma)
14.8 nM	1390 ± 521 ng/mL	3460 ± 1230 ng·h/mL	0.895 ± 0.0751 h	431 ± 117 ng·h/mL	0.818 ± 0.37 h	80.4 ± 28.5%	Cn1cc2cc(NC(=O)C(Cc3ccccc3)N3CC(=O)N(c4cc(Cl)ccc4-n4cc(Cl)nn4)CC3=O)ccc2n1 (stereo not drawn) [Example 25, 2-(4(5-chloro-2-(4-chloro-1H-1,2,3-triazol-1-yl)phenyl)-2,5-dioxopiperazin-1-yl)-N-(2-methyl-2H-indazol-5-yl)-3-phenylpropanamide]	6.6 µM
	2220 ± 552 ng/mL	3940 ± 984 ng·h/mL	0.735 ± 0.0242 h				Cn1cc2cc(NC(=O)C(CC3CCCCO3)N3CC(=O)N(c4cc(Cl)ccc4-n4cc(Cl)nn4)CC3=O)ccc2n1 (stereo not drawn) [Example 117, 2-(4-(5-Chloro-2-(4-chloro-1H-1,2,3-triazol-1-yl)phenyl)-2,5-dioxopiperazin-1-yl)-N-(2-methyl-2H-indazol-5-yl)-3-(tetrahydro-2H-pyran-2-yl)propanamide]	6.3 µM
27.1 nM	798 ± 868 ng/mL	2190 ± 2750 ng·h/mL	1.15 ± 0.0495 h				NC(=O)c1ccc(NC(=O)C(Cc2ccccc2)N2CC(=O)N(c3cc(Cl)ccc3-n3cc(Cl)nn3)CC2=O)cc1F (stereo not drawn) [Example 36, 4-(2-(4-(5-chloro-2-(4-chloro-1H-1,2,3-triazol-1-yl)phenyl)-2,5-dioxopiperazin-1-yl)-3-phenylpropanamido)-2-fluorobenzamide]	15.9 µM
24.4 nM	1100 ± 498 ng/mL	4850 ± 1570 ng·h/mL	0.994 h	326 ± 61.2 ng·h/mL	0.595 ± 0.222 h	149 ± 48.1%	Cn1cc2cc(NC(=O)C(Cc3ccc(F)cc3)N3CC(=O)N(c4cc(Cl)ccc4-n4cc(Cl)nn4)CC3=O)ccc2n1 (stereo in doubt) [Example 99, (R)-2-(4-(5-chloro-2-(4-chloro-1H-1,2,3-triazol-1-yl)phenyl)-2,5-dioxopiperazin-1-yl)-3-(4-fluorophenyl)-N-(2-methyl-2H-indazol-5-yl)propanamide]	6.9 µM
45.2 nM	2860 ± 268 ng/mL	12200 ± 3190 ng·h/mL	2.13 ± 0.18 h				Cn1cc2cc(NC(=O)C(Cc3ccc(F)cc3)N3CC(=O)N(c4cc(Cl)ccc4-n4cc(Cl)nn4)CC3=O)ccc2n1 (stereo not drawn) [Example 47, 2-(4-(5-Chloro-2-(4-chloro-1H-1,2,3-triazol-1-yl)phenyl)-2,5-dioxopiperazin-1-yl)-3-(4-fluorophenyl)-N-(2-methyl-2H-indazol-5-yl)propanamide]	9.3 µM
19.1 nM	1170 ± 576 ng/mL	4710 ± 2120 ng·h/mL	2.04 ± 1.08 h				O=C(Nc1ccc2nn(C(F)F)cc2c1)C(Cc1ccccc1)N1CC(=O)N(c2cc(Cl)ccc2-n2cc(Cl)nn2)CC1=O (stereo not drawn) [Example 45, 2-(4-(5-Chloro-2-(4-chloro-1H-1,2,3-triazol-1-yl)phenyl)-2,5-dioxopiperazin-1-yl)-N-(2-(difluoromethyl)-2H-indazol-5-yl)-3-phenylpropanamide]	11.3 µM
61.4 nM	1360 ± 564 ng/mL	3080 ± 281 ng·h/mL	2.63 ± 0.172 h				COCCC(C(=O)Nc1ccc2nn(C)cc2c1)N1CC(=O)N(c2cc(Cl)ccc2-n2cc(Cl)nn2)CC1=O (stereo not drawn) [Example 38, 2-(4-(5-Chloro-2-(4-chloro-1H-1,2,3-triazol-1-yl)phenyl)-2,5-dioxopiperazin-1-yl)-4-methoxy-N-(2-methyl-2H-indazol-5-yl)butanamide]	19.0 µM
	3420 ± 2350 ng/mL	3020 ± 2540 ng·h/mL	1.38 ± 0.297 h	552 ± 108 ng·h/mL	0.5 ± 0.0254 h	54.7 ± 46%	Cn1ccc(C[C@H](C(=O)Nc2ccc3nn(C)cc3c2)N2CC(=O)N(c3cc(Cl)ccc3-n3cc(Cl)nn3)CC2=O)n1 [Example 113, (R)-2-(4-(5-chloro-2-(4-chloro-1H-1,2,3-triazol-1-yl)phenyl)-2,5-dioxopiperazin-1-yl)-3-(1-methyl-1H-pyrazol-3-yl)-N-(2-methyl-2H-indazol-5-yl)propanamide]	

SMILES	IC50 [1]	Cmax [2, 3]	AUC(0-t) [2, 3]	half-life [2, 3]	AUC(0-t) [2, 4]	half-life [2, 4]	bioavailability ([2]; po)	CT2 (human plasma)
Cn1ccc(CC(C(=O)Nc2ccc3nn(C)cc3c2)N2CC(=O)N(c3cc(Cl)ccc3-n3cc(Cl)nn3)CC2=O)n1 (stereo not drawn) [Example 111, 2-(4-(5-chloro-2-(4-chloro-1H-1,2,3-triazol-1-yl)phenyl)-2,5-dioxopiperazin-1-yl)-3-(1-methyl-1H-pyrazol-3-yl)-N-(2-methyl-2H-indazol-5-yl)propanamide]	45.3 nM	1420 ± 703 ng/mL	2560 ± 409 ng·h/mL	2.37 ± 1.21 h				19.6 µM
